For data set [1] the following is noted: cited from earlier work.
Another data set has as its target JAK2 JH2 (Homo sapiens, UniProt O60674, F794H/W659A/W777A). Nature of the data set: Competitive fluorescence polarization. (In general: In fluorescence polarisation assays a small probe gives low polarisation when free and higher when bound to something large.)

Chain of JAK2 JH2 (O60674 536-812 W659A/W777A/F794H): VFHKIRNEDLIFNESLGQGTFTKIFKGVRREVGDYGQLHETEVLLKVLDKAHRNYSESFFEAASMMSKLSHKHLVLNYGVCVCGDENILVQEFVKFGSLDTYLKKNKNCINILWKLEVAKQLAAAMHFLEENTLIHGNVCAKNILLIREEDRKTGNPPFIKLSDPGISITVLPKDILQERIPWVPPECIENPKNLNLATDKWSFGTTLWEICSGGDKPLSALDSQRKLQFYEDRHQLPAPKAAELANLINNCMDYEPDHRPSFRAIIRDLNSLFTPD

Consider `c1ccsc1` [thiophene], for which the “octanol/water log P” value in data set [1] is given as 1.81.
As for `N#Cc1ccc(Nc2nc(N)n(C(=O)Nc3ccc(OCC(=O)O)cc3)n2)cc1` [Compound 9, 2-(4-(5-amino-3-((4-cyanophenyl)amino)-1H-1,2,4-triazole-1-carboxamido)phenoxy)acetic acid], the “boost in binding strength with JAK2 JH2 compared to 4” value at JAK2 JH2 (FP Kd relative to compound 4) was “ca. 8 fold”.
For the compound `c1cscn1` [thiazole], the “octanol/water log P” value in data set [1] is listed as 0.44.
`Nc1nc(Nc2ccc(S(N)(=O)=O)cc2)nn1C(=O)Nc1ccccc1` [Compound 4, 5-amino-N-phenyl-3-((4-sulfamoylphenyl)amino)-1H-1,2,4-triazole-1-carboxamide]: the “improvement in JAK2 JH2 binding over 2” value at JAK2 JH2 (FP Kd relative to compound 2) came out at 3 fold.
Consider `c1cocn1` [oxazole], for which the “octanol/water log P” value in data set [1] is listed as 0.12.
Regarding furan, the “octanol/water log P” value in data set [1] is listed as 1.34.

(Values after paper PMC7949251 (Journal of medicinal chemistry, 2020).)
